In brackets after ≈: the same amount, converted by molar mass. Read-outs that look alike come from different tables or passages of the source.
What was measured:
[1] = test system: HIV-1 (IIIB) in MT-4 cells; assay: MT-4 HIV Assay; assay type: cell-based
Method: Compounds were tested in a high-throughput 384-well assay format for their ability to inhibit the replication of HIV-1 (IIIB) in MT-4 cells. Compounds were serially diluted (1:3) in DMSO on 384-well polypropylene plates and further diluted 200-fold into complete RPMI media (10% FBS, 1% P/S) using the Biotek Micro Flow and Agilent ECHO acoustic dispenser. Each plate contained up to 8 test compounds, with negative (No Drug Control) and 5 μM AZT positive controls. MT-4 cells were pre-infected with 10 μL of either RPMI (mock-infected) or a fresh 1:250 dilution of an HIV-1 (IIIB) concentrated virus stock. Infected and uninfected MT-4 cells were further diluted in complete RPMI media and added to each plate using a Micro Flow dispenser. After 5 days incubation in a humidified and temperature controlled incubator (37° C.), Cell Titer Glo (Promega) was added to the assay plates to quantify the amount of luciferase. EC50 values were defined as the compound concentration that causes a 50% decrease in luminescence signal, and were calculated using a sigmoidal dose-response model to generate curve fits.

[2] = Kinetic Solubility Analysis (CLND); assay type: physicochemical; settings: 26 °C, kinetic from dmso stock
Method: Kinetic Solubility Analysis (CLND) Buffer Preparation:
0.1N HCl: Hydrochloric acid, 0.1N standardized solution.
1×PBS, 7.4: Phosphate Buffered Saline solution 10×, PBS 50 mL was added to approximately 450 mL HPLC grade H2O. The volume of the solution was then adjusted to 500 mL for a total dilution factor of 1:10 and a final PBS concentration of IX.
Kinetic Solubility from DMSO Stocks:
The final DMSO concentration is 1.0% and maximum theoretical compound concentration is 100 μM (assuming stock concentration of 10 mM). The filter plate was sealed. […] The collection plate was sealed for analysis. Filtrates were injected into the nitrogen detector for quantification.
The equimolar nitrogen response of the detector was calibrated using standards which spanned the dynamic range of the instrument from […] nitrogen. The filtrates were quantified with respect to this calibration curve. The calculated solubility values were corrected for background nitrogen present in the DMSO and the media used to prepare the samples.

[3] = Liver microsomal stability (human); assay type: in vitro ADME; settings: human liver microsomes 0.5 mg/mL, 1 μM compound, NADPH-regenerating system, 37° C.
Method: (§1) Liver Microsomal Stability Protocol
(§2) Test compounds and one control compound (verapamil) were tested in 3 different species in duplicate sets.
(§3) Test compound concentration: 1 μM; Protein concentration: 0.5 mg/mL (for rat and human liver microsomes); Cofactor: NADPH-Regenerating system (NRS) solution. Time-points: 2, 12, 25, 45, and 65 minutes.
(§4) Reaction composition (in each incubation well) contains:
(§5) At an incubation temperature of 37° C., the reaction was started with addition of NADPH Regeneration System, at each time point, 25 μL of the reaction mixture was removed and added to a plate with 225 μL quenching solution (50% MeOH, 25% ACN, 25% H2O, and 200 nM labetalol as internal standard). After plates were vortexed, they were centrifuged for 30 minutes to remove proteins. About 100 μL supernatant was removed to a new plate and diluted with 150 μL water. About 20 μL of the mixture was injected into an LC/MS/MS system to monitor the compound's response. In vitro measured t1/2 was used to calculate Clint values.

[4] = Liver microsomal stability (rat); assay type: in vitro ADME; settings: rat liver microsomes 0.5 mg/mL, 1 μM compound, NADPH-regenerating system, 37° C.
Method: as §1, §2, §3, §4, §5

[5] = Human immunodeficiency virus 1, MT4, 120 h, HIV-1 (IIIB) replication in MT-4 cells, 5 days incubation, Cell Titer Glo, read-out: EC50
[6] = 0.1N HCl, pH 1, simulated gastric fluid, read-out: Solubility, HCl, pH 1.0, RT
[7] = PBS, pH 7.4, aqueous buffer, read-out: Solubility, PBS, pH 7.4, RT

Row | Structure (SMILES) | EC50 [1, 5] [nM] | solubility at 24 h [2, 6] [µM] | solubility at 24 h [2, 7] [µM] | Human Pred Cl. (L/H/kg) [3] [L/H/kg] | Rat. Pred. Cl. (L/H/kg) [4] [L/H/kg] | EC50 ([1]; Human immunodeficiency virus 1, IIIB, MT4, 120 h) [nM]
1 | COC(=O)N[C@H](C(=O)N[C@@H](Cc1ccc(C#Cc2cnc(N3CC4CCC(C3)N4C3COC3)nc2)cc1)[C@H](CN(Cc1c(F)cc(-c2ccn(C(F)F)n2)cc1F)NC(=O)[C@@H](NC(=O)OC)C(C)(C)C(F)(F)F)OC(=O)[C@H](C(C)C)N(C)C)C(C)(C)C(F)(F)F [Example 4, (2S,3S)-1-(1-(4-(1-(difluoromethyl)-1H-pyrazol-3-yl)-2,6-difluorobenzyl)-2-((S)-4,4,4-trifluoro-2-((methoxycarbonyl)amino)-3,3-dimethylbutanoyl)hydrazinyl)-4-(4-((2-(8-(oxetan-3-yl)-3,8-diazabicyclo[3.2.1]octan-3-yl)pyrimidin-5-yl)ethynyl)phenyl)-3-((S)-4,4,4-trifluoro-2-((methoxycarbonyl)amino)-3,3-dimethylbutanamido)butan-2-yl dimethyl-L-valinate] | 5710 | 99.2 (≈ 127 µg/mL) | < 1 |  |  | 
2 | COC(=O)N[C@H](C(=O)N[C@@H](Cc1ccc(C#Cc2cnc(N3CC4CCC(C3)N4C3COC3)nc2)cc1)[C@H](CN(Cc1c(F)cc(-c2ccn(C(F)F)n2)cc1F)NC(=O)[C@@H](NC(=O)OC)C(C)(C)C(F)(F)F)OC(=O)CN(C)C)C(C)(C)C(F)(F)F [Example 10, (2S,3S)-1-(1-(4-(1-(difluoromethyl)-1H-pyrazol-3-yl)-2,6-difluorobenzyl)-2-((S)-4,4,4-trifluoro-2-((methoxycarbonyl)amino)-3,3-dimethylbutanoyl)hydrazinyl)-4-(4-((2-(8-(oxetan-3-yl)-3,8-diazabicyclo[3.2.1]octan-3-yl)pyrimidin-5-yl)ethynyl)phenyl)-3-((S)-4,4,4-trifluoro-2-((methoxycarbonyl)amino)-3,3-dimethylbutanamido)butan-2-yl dimethylglycinate] |  | 79.3 (≈ 98.4 µg/mL) | < 1 |  |  | 
3 | COC(=O)N[C@H](C(=O)N[C@@H](Cc1ccc(C#Cc2cnc(N3CC4CCC(C3)N4C3COC3)nc2)cc1)[C@H](CN(Cc1c(F)cc(-c2ccn(C(F)F)n2)cc1F)NC(=O)[C@@H](NC(=O)OC)C(C)(C)C(F)(F)F)OC(=O)[C@@H](N)C(C)C)C(C)(C)C(F)(F)F [Example 8, (2S,3S)-1-(1-(4-(1-(difluoromethyl)-1H-pyrazol-3-yl)-2,6-difluorobenzyl)-2-((S)-4,4,4-trifluoro-2-((methoxycarbonyl)amino)-3,3-dimethylbutanoyl)hydrazinyl)-4-(4-((2-(8-(oxetan-3-yl)-3,8-diazabicyclo[3.2.1]octan-3-yl)pyrimidin-5-yl)ethynyl)phenyl)-3-((S)-4,4,4-trifluoro-2-((methoxycarbonyl)amino)-3,3-dimethylbutanamido)butan-2-yl L-valinate] | 102 | 90 (≈ 113 µg/mL) | < 1 |  |  | 
4 | COC(=O)N[C@H](C(=O)N[C@@H](Cc1ccc(C#Cc2cnc(N3CC4CCC(C3)N4C3COC3)nc2)cc1)[C@H](CN(Cc1c(F)cc(-c2ccn(C(F)F)n2)cc1F)NC(=O)[C@@H](NC(=O)OC)C(C)(C)C(F)(F)F)OC(C)=O)C(C)(C)C(F)(F)F [Example 3, (5S,10S,11S,14S)-8-(4-(1-(difluoromethyl)-1H-pyrazol-3-yl)-2,6-difluorobenzyl)-11-(4-((2-(8-(oxetan-3-yl)-3,8-diazabicyclo[3.2.1]octan-3-yl)pyrimidin-5-yl)ethynyl)benzyl)-3,6,13,16-tetraoxo-5,14-bis(1,1,1-trifluoro-2-methylpropan-2-yl)-2,17-dioxa-4,7,8,12,15-pentaazaoctadecan-10-yl acetate] | 603 | 25.2 | < 1 |  |  | 
5 | COC(=O)N[C@H](C(=O)N[C@@H](Cc1ccc(C#Cc2ccc(N3CC4CCC(C3)N4C3COC3)nc2)cc1)[C@H](CN(Cc1c(F)cc(-c2ccn(C(F)F)n2)cc1F)NC(=O)[C@@H](NC(=O)OC)C(C)(C)C(F)(F)F)OC(=O)OCOP(=O)(O)O)C(C)(C)C(F)(F)F [Example 13, methyl ((5S,10S,11S,14S)-8-(4-(1-(difluoromethyl)-1H-pyrazol-3-yl)-2,6-difluorobenzyl)-16,16,16-trifluoro-15,15-dimethyl-11-(4-((6-(8-(oxetan-3-yl)-3,8-diazabicyclo[3.2.1]octan-3-yl)pyridin-3-yl)ethynyl)benzyl)-3,6,13-trioxo-10-((((phosphonooxy)methoxy)carbonyl)oxy)-5-(1,1,1-trifluoro-2-methylpropan-2-yl)-2-oxa-4,7,8,12-tetraazahexadecan-14-yl)carbamate] |  | 67.4 (≈ 88.2 µg/mL) | < 1 |  |  | 
6 | COC(=O)N[C@H](C(=O)N[C@@H](Cc1ccc(C#Cc2cnc(N3CC4CCC(C3)N4C3COC3)nc2)cc1)[C@H](CN(Cc1c(F)cc(-c2ccn(C(F)F)n2)cc1F)NC(=O)[C@@H](NC(=O)OC)C(C)(C)C(F)(F)F)OP(=O)(O)O)C(C)(C)C(F)(F)F [Example 12, methyl ((5S,10S,11S,14S)-8-(4-(1-(difluoromethyl)-1H-pyrazol-3-yl)-2,6-difluorobenzyl)-16,16,16-trifluoro-15,15-dimethyl-11-(4-((2-(8-(oxetan-3-yl)-3,8-diazabicyclo[3.2.1]octan-3-yl)pyrimidin-5-yl)ethynyl)benzyl)-3,6,13-trioxo-10-(phosphonooxy)-5-(1,1,1-trifluoro-2-methylpropan-2-yl)-2-oxa-4,7,8,12-tetraazahexadecan-14-yl)carbamate] |  | 13.1 (≈ 16.2 µg/mL) | 84.6 (≈ 105 µg/mL) | 0.47 | 0.91 | 
7 | COC(=O)N[C@H](C(=O)N[C@@H](Cc1ccc(C#Cc2cnc(N3CC4CCC(C3)N4C3COC3)nc2)cc1)[C@H](CN(Cc1c(F)cc(-c2ccn(C(F)F)n2)cc1F)NC(=O)[C@@H](NC(=O)OC)C(C)(C)C(F)(F)F)OC(=O)CCC[N+](C)(C)C)C(C)(C)C(F)(F)F [Example 7, (5S,10S)-8-(4-(1-(difluoromethyl)-1H-pyrazol-3-yl)-2,6-difluorobenzyl)-N,N,N-trimethyl-10-((1 S)-2-(4-((2-(8-(oxetan-3-yl)-3,8-diazabicyclo[3.2.1]octan-3-yl)pyrimidin-5-yl)ethynyl)phenyl)-1-((S)-4,4,4-trifluoro-2-((methoxycarbonyl)amino)-3,3-dimethylbutanamido)ethyl)-3,6,2-trioxo-5-(1,1,1-trifluoro-2-methylpropan-2-yl)-2,11-dioxa-4,7,8-triazapentadecan-15-aminium 2,2,2-trifluoroacetate] |  |  |  |  |  | 247
8 | COC(=O)N[C@H](C(=O)N[C@@H](Cc1ccc(C#Cc2cnc(N3CC4CCC(C3)N4C3COC3)nc2)cc1)[C@H](CN(Cc1c(F)cc(-c2ccn(C(F)F)n2)cc1F)NC(=O)[C@@H](NC(=O)OC)C(C)(C)C(F)(F)F)OC(=O)[C@@H](N)CCCCN)C(C)(C)C(F)(F)F [Example 9, (2S,3S)-1-(1-(4-(1-(difluoromethyl)-1H-pyrazol-3-yl)-2,6-difluorobenzyl)-2-((S)-4,4,4-trifluoro-2-((methoxycarbonyl)amino)-3,3-dimethylbutanoyl)hydrazinyl)-4-(4-((2-(8-(oxetan-3-yl)-3,8-diazabicyclo[3.2.1]octan-3-yl)pyrimidin-5-yl)ethynyl)phenyl)-3-((S)-4,4,4-trifluoro-2-((methoxycarbonyl)amino)-3,3-dimethylbutanamido)butan-2-yl L-lysinate] | 20.6 | 86.8 (≈ 111 µg/mL) | 6.8 (≈ 8.73 µg/mL) |  |  | 
